In patent US7358376B2, “Substituted Thiophene compounds” (AstraZeneca AB, priority 2000, dated 2008):

melting point [°C]	SMILES
> 300	COc1ccc(-c2cc(NC(N)=O)c(C(N)=O)s2)cc1 [Example 4, 3-[(Aminocarbonyl)amino]-5-(4-methoxyphenyl)-2-thiophenecarboxamide]
> 300	CN(C)CCOc1ccc(-c2cc(NC(N)=O)c(C(N)=O)s2)cc1 [Example 10, 3-[(Aminocarbonyl)amino]-5-{4-[2-(dimethylamino)ethoxy]phenyl}-2-thiophenecarboxamide]
180	CN(C)CCOc1ccccc1-c1cc(NC(N)=O)c(C(N)=O)s1 [Example 9, 3-[(Aminocarbonyl)amino]-5-{2-[2-(dimethylamino)ethoxy]phenyl}-2-thiophenecarboxamide]
> 300	NC(=O)Nc1cc(-c2ccccc2Cl)sc1C(N)=O [Example 7, 3-[(Aminocarbonyl)amino]5-(2-chlorophenyl)-2-thiophenecarboxamide]
